Here are results for seven compounds from article PMC3878918, “Cathepsin K inhibitors increase distal femoral bone mineral density in rapidly growing rabbits” (BMC Musculoskeletal Disorders, 2013).

Like-named read-outs stand apart in the source and are kept apart here.

Usually IC50 stands for the concentration that inhibits the measured activity by half. In general, Cmax refers to the highest concentration seen after dosing.

Series [1] has as its system rapidly growing rabbits. Description: Rabbit Schenk assay: distal femoral BMD by ex vivo DXA and histology after 10 days' treatment. The format is in vivo. The following applies: for DFBMD / % BMD gain / Distal femur BMD / DFBMD of representative DXA image / increase in DFBMD vs vehicle: 10 days; for DFBMD: dose-ranging study; for DFBMD / Distal femur BMD: mean ± SEM; for % BMD gain: vs vehicle; for DFBMD of representative DXA image: single representative femur. As for the experimental part:
To characterize the dose of ALN required to show increases in DFBMD, dose-ranging studies were conducted using ALN, administered at doses of 0, 50, 100, 200, and 500 μg/kg (SC, once daily). Seven-week-old rabbits were weight-randomized into groups (n = 8-11 per group). ALN was prepared in deionized water and pH adjusted to 7.2. The injection volume was 0.3 mL per rabbit. Rabbits were treated daily for 10 consecutive days. Rabbits were reweighed on Day 6 and dosing volume was adjusted accordingly. At necropsy, the right femur was excised and stored in 70% ethanol.
Rabbits were treated once daily by oral gavage for 10 consecutive days with vehicle (1% carboxymethylcellulose or 0.5%/0.2% carboxymethylcellulose/SDS), CatK inhibitors, or ALN (100 μg/kg, SC). Several studies were conducted, with each study including vehicle (n = 11–14), multiple dose levels of a CatK inhibitor (n = 13–14 per group), and ALN (n = 8–9). On Day 1, two rabbits from each group receiving CatK inhibitors were bled via the central ear artery (0.5 mL each) at 0, 0.25, 1, 3, 6, 8, and 24 h after dosing. Plasma concentrations of CatK inhibitors were determined in all samples. On Day 11, rabbits were euthanized. Femurs were removed and stored in 70% ethanol for BMD analysis.
Whole right femurs with muscles removed, were immersed in two inches of water in an acrylic box, and positioned with both distal condyles resting on the bottom of the box. The distal 5 cm of the femur was scanned using small animal software in high resolution mode on a Hologic QDR 4500 fan-beam bone densitometer (DXA; Hologic, Inc., Waltham, MA, USA). The distal 3 cm of the femur was analyzed. A region of interest (ROI) beginning one line distal to the distal edge of the femur and centered 70 lines wide and extending 60 lines proximally in the long axis of the bone was applied. Bone mineral content (BMC) and bone area (BAr) were output by DXA software. BMD was calculated as BMC/BAr.
Following ex vivo DXA scanning, the distal one-third of the femur was cut mid-sagitally and then dehydrated, without prior decalcification, in increasing concentrations of ethanol. The right portion was embedded in 80% methylmethacrylate/20% dibutyl phthalate. Parasagittal sections (6 μm) were cut on a Reichert-Jung Polycut sledge microtome (Nussloch, Germany) and mounted on glass slides. A Masson’s trichrome stain was performed to view calcified tissue.

Series [2] concerns growing rats. The following applies: cited from earlier work; for trabecular bone volume in the proximal tibial metaphysis vs untreated rats: growing rats, ten days.
Series [3] has as its system weanling rats. To be noted: six weeks of once-weekly treatment; cited from earlier work.
The subject of series [4] is rabbit osteoclasts. Briefly: In vitro bone resorption assay, rabbit osteoclasts on bovine bone slices, CTx-I release. The format is cell-based. As for the experimental part: The bone resorption assay is a functional in vitro assay that measures Type-I collagen degradation after a three-day incubation of rabbit osteoclasts cultured on bovine bone with varying concentrations of test compound, as previously described. Briefly, long bones isolated from a 10-day-old NZW rabbit were finely minced in alpha-minimal essential medium (α-MEM) (Gibco BRL; Gaithersburg, MD, USA) containing penicillin/streptomycin, pH 7.1 to obtain a cell suspension and 1 × 10^6 cells were seeded onto each 6 mm diameter × 0.22 mm thick bovine bone slice in the same medium containing 2% fetal bovine serum (FBS). After 4 h, the medium was replaced with α-MEM, 2% FBS, 1,25(OH)2D3 10 nM, and test compounds. The cultures were incubated for three days at 37°C in 5% CO2. C-telopeptide of Type-I collagen (CTx-I) released into the medium was measured by the CROSSLAPS Elisa assay (Osteometer Biotech, Herlev, Denmark).

Series [5] relates to rabbit CatK. The following applies: 2 μM Z-Leu-Arg-AMC as substrate; cited from earlier work.
In series [6] the test system is rabbit osteoclasts. On the set-up: method as in PMID 16302795, PMID 18226527. The following applies: three-day incubation, CTx-I release; read-out: IC50 Rabbit bone resorption assay; cited from earlier work.
Details of series [7]: method as in PMID 16302795, PMID 18226527. To be noted: rabbit, cited from earlier work; for Cmin / AUC / Cmax: oral; for Cmin: trough at 24 h.
In series [8] the test system is human CatK. The arrangement: method as in PMID 19453281. To be noted: cited from earlier work.
In series [9] the test system is rat CatK. The arrangement: method as in PMID 19453281. The following applies: cited from earlier work.
For series [10], the system named is mouse CatK. The arrangement: method as in PMID 19453281. To be noted: cited from earlier work.
The mark [11] stands for this setting: printed in the 3 mg/kg dose row.
Where [12] appears, read: printed in the 10 mg/kg dose row.

Regarding `NCCCC(O)(P(=O)(O)O)P(=O)(O)O` [ALN, alendronate, reference compound], in series [1] (10 days' treatment, Masson's trichrome), the “histology of distal femoral metaphysis compared to vehicle” value is “increased retention of both calcified cartilage and bone tissue”. Further, the DFBMD in series [1] (ALN 50 μg/kg SC once daily) was 277.8 ± 8.4 mg/cm^2; in series [1] (ALN 100 μg/kg SC once daily) it was 313.7 ± 3.9 mg/cm^2; in [1] (ALN 200 μg/kg SC once daily), 281.7 ± 6.4 mg/cm^2; in series [1] (ALN 500 μg/kg SC once daily), 291.2 ± 9.4 mg/cm^2. Besides, the “% BMD gain” value in series [1] (ALN 50 μg/kg/day SC) is given as 15%; in series [1] (ALN 100 μg/kg/day SC), 16%; in series [1] (ALN 200 μg/kg/day SC), 16%; in series [1] (ALN 500 μg/kg/day SC), 21%. Further, the figures for the “Distal femur BMD” value in series [1] (ALN 100 μg/kg SC positive control in the L-006235 study), in series [1] (ALN 100 μg/kg SC positive control in the L-833905 study) and in series [1] (ALN 100 μg/kg SC positive control in the L-873724 study) were 300.5 ± 4.6 mg/cm^2, 314.0 ± 9.1 mg/cm^2 and 352.8 ± 9.4 mg/cm^2, respectively. In addition, the “DFBMD of representative DXA image” value in series [1] (ALN 100 μg/kg/day) was 361 mg/cm^2. The trabecular bone volume entry in series [2] (seven days SC 0.010 mg/kg/d) is “increased trabecular bone volume”. Further, in series [3], the “distal femoral metaphyseal BMD” value is “increase in distal femoral metaphyseal BMD”.

For the compound `CN1CCN(c2nc(-c3ccc(C(=O)NC4(C(=O)NCC#N)CCCCC4)cc3)cs2)CC1` [Compound L-006235], the “fold more potent in the bone resorption assay than L-833905” value (“fold more potent” for short) in [4] is recorded as “approximately 30 fold”. Also, the “increase in DFBMD vs vehicle” value in series [1] (1 mg/kg oral once daily) is 7%; in series [1] (3 mg/kg oral once daily), 11%; in series [1] (10 mg/kg oral once daily), 15%. Also, the “Distal femur BMD” value in [1] (1 mg/kg oral once daily) came out at 281.7 ± 4.9 mg/cm^2; in series [1] (3 mg/kg oral once daily), 293.5 ± 2.8 mg/cm^2; in series [1] (10 mg/kg oral once daily) it was 303.5 ± 5.4 mg/cm^2. Further, the IC50 in [5] is 0.5 nM; in series [6], 5 ± 1 nM. Further, the Cl in [7] (1 mg/kg dose), in [7] (setting [11]) and in series [7] (setting [12]) was 113 mL/min/kg throughout. The Cmin in series [7] (1 mg/kg, LOD ~ 1 nM) is 9 nM; in [7] (3 mg/kg), 15 nM; in series [7] (10 mg/kg) it was 8 nM. In addition, the AUC in series [7] (1 mg/kg) is recorded as 0.3 μm*hr; in series [7] (3 mg/kg) it was 1.0 μm*hr; in series [7] (10 mg/kg) it was 5.0 μm*hr. Further, the Cmax in series [7] (1 mg/kg) was 74 nM; in series [7] (3 mg/kg) it was 337 nM; in series [7] (10 mg/kg), 2440 nM.

For the compound `CC(C)C[C@@H](C(=O)NCC#N)c1cccc(-c2ccc(N3CCNCC3)cc2)c1` [Compound L-833905, (R)-N-(cyanomethyl)-4-methyl-2-(4′-(piperazin-1-yl)-[1,1′-biphenyl]-3-yl)pentanamide], the “fold less potent inhibitor of CatK than L-006235, L-873724 and ODN” value in [4] (from the EIA and functional cell-based assay) is 6–30 fold. Further, in series [1] (10 mg/kg oral once daily), the “increase in DFBMD vs vehicle” value stood at 3% and the “Distal femur BMD” value was found to be 282.5 ± 5.5 mg/cm^2. Moreover, in series [1] (30 mg/kg oral once daily), the “increase in DFBMD vs vehicle” value came out at 10% and the “Distal femur BMD” value came to 301.8 ± 4.9 mg/cm^2. Moreover, in series [5], the IC50 is 33 ± 2 nM. Moreover, the IC50 in series [6] was 149 ± 20 nM. For the same compound, in [7] (10 mg/kg), the Cmin is given as 29 nM, the AUC is listed as 1.9 μm*hr and the Cmax is 163 nM. Further, in [7] (30 mg/kg), the Cmin is listed as 60 nM, the AUC is 6.1 μm*hr and the highest concentration (Cmax) is 651 nM.

For the compound `CC(C)C[C@H](N[C@@H](c1ccc(-c2ccc(S(C)(=O)=O)cc2)cc1)C(F)(F)F)C(=O)NCC#N` [Compound L-873724], the “fold more potent” value in [4] is “approximately 30 fold”. Moreover, the results for the “Distal femur BMD” value in [1] (1 mg/kg oral once daily), in [1] (3 mg/kg oral once daily) and in [1] (10 mg/kg oral once daily) were 301.2 ± 3.7 mg/cm^2, 310.5 ± 6.5 mg/cm^2 and 327.7 ± 7.5 mg/cm^2, respectively. Moreover, the “increase in DFBMD vs vehicle” value in series [1] (3 mg/kg oral once daily) is 9%; in series [1] (10 mg/kg oral once daily), 15%. The IC50 in [5] is 0.8 nM; in series [6] it was 13 ± 1 nM. The Cl in [7] (1 mg/kg dose), in [7] (setting [11]) and in series [7] (setting [12]) was 26 mL/min/kg in each case. Moreover, the Cmin entry in [7] (1 mg/kg, LOD ~ 1 nM) is given as “<LOD*”; in series [7] (3 mg/kg) it was 28 nM; in series [7] (10 mg/kg) it was 32 nM. Besides, the AUC was 0.5 μm*hr in series [7] (1 mg/kg), 3.1 μm*hr in series [7] (3 mg/kg) and 7.8 μm*hr in [7] (10 mg/kg). For the same compound, the figures for the Cmax in [7] (1 mg/kg), in [7] (3 mg/kg) and in series [7] (10 mg/kg) were 78 nM, 490 nM and 1370 nM, respectively.

On to `CC(C)(F)C[C@H](N[C@@H](c1ccc(-c2ccc(S(C)(=O)=O)cc2)cc1)C(F)(F)F)C(=O)NC1(C#N)CC1` [ODN, odanacatib], for which the “fold more potent” value in series [4] is reported as “approximately 30 fold”. The “increase in DFBMD vs vehicle” value in series [1] (0.3 mg/kg oral once daily) amounted to 7%; in [1] (1 mg/kg oral once daily), 11%; in series [1] (3 mg/kg oral once daily), 19%. For the same compound, the “DFBMD of representative DXA image” value in series [1] (ODN 3 mg/kg) is 388 mg/cm^2. In addition, the IC50 in series [5] is 1 nM; in series [6] it was 23 ± 6 nM; in [8], 0.2 nM; in series [9], 112 nM; in [10] it was 108 nM. For the same compound, the Cl in series [7] (1 mg/kg dose) and in [7] (printed in the 0.3 mg/kg dose row) was 6 mL/min/kg each time. Besides, the results for the AUC in series [7] (0.3 mg/kg), in [7] (1 mg/kg) and in series [7] (3 mg/kg) were 0.7 μm*hr, 2.2 μm*hr and 4.1 μm*hr, respectively. For the same compound, the Cmin was 37 nM in series [7] (1 mg/kg, LOD ~ 1 nM) and 88 nM in series [7] (3 mg/kg). In addition, the Cmax in series [7] (1 mg/kg) is 130 nM; in [7] (3 mg/kg) it was 270 nM. The “fold less potent versus rat CatK than versus human and rabbit CatK” value in [9] was “more than 500 fold”. Moreover, the “fold less potent versus mouse CatK than versus human and rabbit CatK” value in [10] is given as “more than 500 fold”.

`O=P(O)(O)C(Cl)(Cl)P(=O)(O)O` [clodronate]: the “trabecular bone volume in the proximal tibial metaphysis vs untreated rats” value in series [2] is “higher trabecular bone volume”.

Regarding `CC(O)(P(=O)(O)O)P(=O)(O)O` [etidronate], in series [2], the “trabecular bone volume in the proximal tibial metaphysis vs untreated rats” value is reported as “higher trabecular bone volume”.
